{"source": "patent US20260248783A1", "about": "(ASCLETIS BIOSCIENCE CO., LTD., priority 2021, published 2026)", "data": [{"biological_target": "T1, PD-1/PD-L1 (Homo sapiens, UniProt Q9NZQ7)", "T1 construct": "Recombinant human PD-L1 protein (19-238) with a Histag at the C-terminus; purchased AcroBiosystems PD1-H5229 (PD-L1); PD1-H5257 (PD-1)", "T1 sequence (Q9NZQ7 19-238)": "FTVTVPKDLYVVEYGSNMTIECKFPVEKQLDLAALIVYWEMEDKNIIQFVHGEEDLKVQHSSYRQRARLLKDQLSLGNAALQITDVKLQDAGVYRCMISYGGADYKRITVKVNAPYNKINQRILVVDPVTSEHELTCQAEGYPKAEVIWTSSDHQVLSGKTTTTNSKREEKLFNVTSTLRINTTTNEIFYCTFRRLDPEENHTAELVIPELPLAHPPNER", "assay": "PD-1/PD-L1 Homogeneous Time-Resolved Fluorescence (HTRF) Binding Assay", "conditions": "PD-1/PD-L1 HTRF activity; 3 nM PD1, 10 nM PD-L1, 25° C.", "procedure": "Example 107. PD-1/PD-L1 Homogeneous Time-Resolved Fluorescence (HTRF) Binding Assay\nThe assays were conducted in a standard black 384-well polystyrene plate with a final volume of 20 μL. Inhibitors were first serially diluted in DMSO and then added to the plate wells before the addition of other reaction components. The final concentration of DMSO in the assay was 1%. The assays were carried out at 25° C. in the PBS buffer (pH 7.4) with 0.05% Tween-20 and 0.1% BSA. Recombinant human PD-L1 protein (19-238) with a Histag at the C-terminus was purchased from AcroBiosystems (PD1-H5229). Recombinant human PD-1 protein (25-167) with Fe tag at the C-terminus was also purchased from AcroBiosystems (PD1-H5257). PD-L1 and PD-1 proteins were diluted in the assay buffer and 10 μL was added to the plate well. Plates were centrifuged and proteins were preincubated with inhibitors for 40 minutes. The incubation was followed by the addition of 10 μL of HTRF detection buffer supplemented with Europium cryptate-labeled anti-human IgG (PerkinElmer-AD0212) specific for Fe and anti-His antibody conjugated to SureLight®—Allophycocyanin (APC, PerkinElmer-AD0059H). After centrifugation, the plate was incubated at 25° C. for 60 min. before reading on a PHERAstar FS plate reader (665 nm/620 nm ratio). Final concentrations in the assay were […], 10 nM PD-L1, 1 nM europium anti-human IgG and 20 nM anti-His-Allophycocyanin. IC50 determination was performed by fitting the curve of percent control activity versus the log of the inhibitor concentration.", "units": {"IC50": "nM"}, "values": [{"compound": "O=C1CC[C@@H](Cn2c(C3CC3)nn3cc(-c4cccc(-c5cccc(-c6cc7c(=O)n(C[C@@H]8CCC(=O)N8)c(C8CC8)nn7c6)c5Cl)c4Cl)cc3c2=O)N1", "note": "[Compound 34, 6,6′-(2,2′-dichloro-[1,1′-biphenyl]-3,3′-diyl)bis(2-cyclopropyl-3-(((S)-5-oxopyrrolidin-2-yl)methyl)pyrrolo[2,1-f][1,2,4]triazin-4(3H)-one)]", "IC50": "10 to 100"}, {"compound": "O=C1CC[C@@H](Cn2cnc3sc(-c4cccc(-c5cccc(-c6cc7c(=O)n(C[C@@H]8CCC(=O)N8)cnc7s6)c5Cl)c4Cl)cc3c2=O)N1", "note": "[Compound 2, 6,6′-(2,2′-dichloro-[1,1′-biphenyl]-3,3′-diyl)bis(3-(((S)-5-oxopyrrolidin-2-yl)methyl)thieno[2,3-d]pyrimidin-4(3H)-one)]", "IC50": "10 to 100"}, {"compound": "CCc1cn2nc(-c3cccc(-c4cccc(-c5cc6c(=O)n(C[C@@H]7CCC(=O)N7)c(CC)cn6n5)c4Cl)c3Cl)cc2c(=O)n1C[C@@H]1CCC(=O)N1", "note": "[Compound 33, 2,2′-(2,2′-dichloro-[1,1′-biphenyl]-3,3′-diyl)bis(6-ethyl-5-(((S)-5-oxopyrrolidin-2-yl)methyl)pyrazolo[1,5-a]pyrazin-4(5H)-one)]", "IC50": "10 to 100"}, {"compound": "Cc1cn2nc(-c3cccc(-c4cccc(-c5cc6c(=O)n(CCN7CCCCC7C(=O)O)c(C)cn6n5)c4Cl)c3Cl)cc2c(=O)n1CCN1CCCCC1C(=O)O", "note": "(stereo not shown) [Compound 79, 1,1′-(((2,2′-dichloro-[1,1′-biphenyl]-3,3′-diyl)bis(6-methyl-4-oxopyrazolo[1,5-a]pyrazine-2,5(4H)-diyl))bis(ethane-2,1-diyl))bis(piperidine-2-carboxylic acid)]", "IC50": "10 to 100"}, {"compound": "Cn1c(CN2CC[C@H](C(=O)O)C2)cn2nc(-c3cccc(-c4cccc(-c5cc6c(=O)n(C)c(CN7CC[C@H](C(=O)O)C7)cn6n5)c4Cl)c3Cl)cc2c1=O", "note": "[Compound 41, (3S,3'S)-1,1′-(((2,2′-dichloro-[1,1′-biphenyl]-3,3′-diyl)bis(5-methyl-4-oxo-4,5-dihydropyrazolo[1,5-a]pyrazine-2,6-diyl))bis(methylene))bis(pyrrolidine-3-carboxylic acid)]", "IC50": "10 to 100"}, {"compound": "Cc1cn2nc(-c3cccc(-c4cccc(-c5cc6c(=O)n(CCN7CCNCC7)c(C)cn6n5)c4Cl)c3Cl)cc2c(=O)n1CCN1CCNCC1", "note": "[Compound 83, 2,2′-(2,2′-dichloro-[1,1′-biphenyl]-3,3′-diyl)bis(6-methyl-5-(2-(piperazin-1-yl)ethyl)pyrazolo[1,5-a]pyrazin-4(5H)-one)]", "IC50": "≥ 100"}, {"compound": "Cc1cn2cc(-c3cccc(-c4cccc(-c5cc6c(=O)n(C[C@@H]7CCC(=O)N7)c(C)cn6c5)c4Cl)c3Cl)cc2c(=O)n1C[C@@H]1CCC(=O)N1", "note": "[Compound 30, 7,7′-(2,2′-dichloro-[1,1′-biphenyl]-3,3′-diyl)bis(3-methyl-2-(((S)-5-oxopyrrolidin-2-yl)methyl)pyrrolo[1,2-a]pyrazin-1(2H)-one)]", "IC50": "< 10"}, {"compound": "O=C1CC[C@@H](Cn2cnc3[nH]c(-c4cccc(-c5cccc(-c6cc7c(=O)n(C[C@@H]8CCC(=O)N8)cnc7[nH]6)c5Cl)c4Cl)cc3c2=O)N1", "note": "[Compound 14, 6,6′-(2,2′-dichloro-[1,1′-biphenyl]-3,3′-diyl)bis(3-(((S)-5-oxopyrrolidin-2-yl)methyl)-3,7-dihydro-4H-pyrrolo[2,3-d]pyrimidin-4-one)]", "IC50": "10 to 100"}, {"compound": "Cc1cn2nc(-c3cccc(-c4cccc(-c5cc6c(=O)n(CCNC7(C(=O)O)COC7)c(C)cn6n5)c4Cl)c3Cl)cc2c(=O)n1CCNC1(C(=O)O)COC1", "note": "[Compound 82, 3,3′-((((2,2′-dichloro-[1,1′-biphenyl]-3,3′-diyl)bis(6-methyl-4-oxopyrazolo[1,5-a]pyrazine-2,5(4H)-diyl))bis(ethane-2,1-diyl))bis(azanediyl))bis(oxetane-3-carboxylic acid)]", "IC50": "≥ 100"}, {"compound": "O=C1CC[C@@H](Cn2ccn3cc(-c4cccc(-c5cccc(-c6cn7ccn(C[C@@H]8CCC(=O)N8)c(=O)c7n6)c5Cl)c4Cl)nc3c2=O)N1", "note": "[Compound 12, 2,2′-(2,2′-dichloro-[1,1′-biphenyl]-3,3′-diyl)bis(7-(((S)-5-oxopyrrolidin-2-yl)methyl)imidazo[1,2-a]pyrazin-8(7H)-one)]", "IC50": "10 to 100"}, {"compound": "O=C1CC[C@@H](Cn2ccn3cc(-c4cccc(-c5cccc(-c6cc7c(=O)n(C[C@@H]8CCC(=O)N8)ccn7c6)c5Cl)c4Cl)cc3c2=O)N1", "note": "[Compound 5, 7,7′-(2,2′-dichloro-[1,1′-biphenyl]-3,3′-diyl)bis(2-(((S)-5-oxopyrrolidin-2-yl)methyl)pyrrolo[1,2-a]pyrazin-1(2H)-one)]", "IC50": "10 to 100"}, {"compound": "Cn1c(CN2CC[C@H](O)C2)cn2cc(-c3cccc(-c4cccc(-c5cc6c(=O)n(C)c(CN7CC[C@H](O)C7)cn6c5)c4Cl)c3Cl)cc2c1=O", "note": "[Compound 46, 7,7′-(2,2′-dichloro-[1,1′-biphenyl]-3,3′-diyl)bis(3-(((S)-3-hydroxypyrrolidin-1-yl)methyl)-2-methylpyrrolo[1,2-a]pyrazin-1(2H)-one)]", "IC50": "10 to 100"}, {"compound": "Cn1c(-c2cccc(-c3cccc(-c4nc5c(c(=O)n(C[C@@H]6CCC(=O)N6)c(=O)n5C)n4C)c3Cl)c2Cl)nc2c1c(=O)n(C[C@@H]1CCC(=O)N1)c(=O)n2C", "note": "[Compound 10, 8,8′-(2,2′-dichloro-[1,1′-biphenyl]-3,3′-diyl)bis(3,7-dimethyl-1-(((S)-5-oxopyrrolidin-2-yl)methyl)-3,7-dihydro-1H-purine-2,6-dione)]", "IC50": "≥ 100"}, {"compound": "CCc1nn2cc(-c3cccc(-c4cccc(-c5cc6c(=O)n(CCN[C@@H](CO)C(=O)O)c(CC)nn6c5)c4Cl)c3Cl)cc2c(=O)n1CCN[C@@H](CO)C(=O)O", "note": "[Compound 65, (2S,2'S)-2,2′-((((2,2′-dichloro-[1,1′-biphenyl]-3,3′-diyl)bis(2-ethyl-4-oxopyrrolo[2,1-f][1,2,4]triazine-6,3(4H)-diyl))bis(ethane-2,1-diyl))bis(azanediyl))bis(3-hydroxypropanoic acid)]", "IC50": "10 to 100"}, {"compound": "Cc1cn2nc(-c3cccc(-c4cccc(-c5cc6c(=O)n(C[C@@H]7CCC(=O)N7)c(C)cn6n5)c4Cl)c3Cl)cc2c(=O)n1C[C@@H]1CCC(=O)N1", "note": "[Compound 29]", "IC50": "< 10"}, {"compound": "Cc1cn2nc(-c3cccc(-c4cccc(-c5cc6c(=O)n(C(C)CN[C@@H](CO)C(=O)O)c(C)cn6n5)c4Cl)c3Cl)cc2c(=O)n1C(C)CN[C@@H](CO)C(=O)O", "note": "(stereo partly drawn) [Compound 94, (2S,2'S)-2,2′-((((2,2′-dichloro-[1,1′-biphenyl]-3,3′-diyl)bis(6-methyl-4-oxopyrazolo[1,5-a]pyrazine-2,5(4H)-diyl))bis(propane-2,1-diyl))bis(azanediyl))bis(3-hydroxypropanoic acid)]", "IC50": "10 to 100"}, {"compound": "O=C1CC(Cn2cnn3cc(-c4cccc(-c5cccc(-c6cc7c(=O)n(CC8CNC(=O)C8)cnn7c6)c5Cl)c4Cl)cc3c2=O)CN1", "note": "(stereo not shown) [Compound 18, 6,6′-(2,2′-dichloro-[1,1′-biphenyl]-3,3′-diyl)bis(3-((5-oxopyrrolidin-3-yl)methyl)pyrrolo[2,1-f][1,2,4]triazin-4(3H)-one)]", "IC50": "10 to 100"}, {"compound": "Cc1cn2nc(-c3cccc(-c4cccc(-c5cc6c(=O)n(CCN[C@]7(C(=O)O)C[C@H](O)C7)c(C)cn6n5)c4Cl)c3Cl)cc2c(=O)n1CCN[C@]1(C(=O)O)C[C@H](O)C1", "note": "[Compound 102, (1S,1'S,3S,3'S)-1,1′-((((2,2′-dichloro-[1,1′-biphenyl]-3,3′-diyl)bis(6-methyl-4-oxopyrazolo[1,5-a]pyrazine-2,5(4H)-diyl))bis(ethane-2,1-diyl))bis(azanediyl)) bis(3-hydroxycyclobutane-1-carboxylic acid)]", "IC50": "< 10"}, {"compound": "Cc1cn2cc(-c3cccc(-c4cccc(-c5cc6c(=O)n(C[C@@H]7CCCN7)c(C)cn6c5)c4Cl)c3Cl)cc2c(=O)n1C[C@@H]1CCCN1", "note": "[Compound 38, 7,7′-(2,2′-dichloro-[1,1′-biphenyl]-3,3′-diyl)bis(3-methyl-2-(((S)-pyrrolidin-2-yl)methyl)pyrrolo[1,2-a]pyrazin-1(2H)-one)]", "IC50": "10 to 100"}, {"compound": "O=C1CC[C@@H](CN2CCn3cc(-c4cccc(-c5cccc(-c6cc7n(c6)CCN(C[C@@H]6CCC(=O)N6)C7=O)c5Cl)c4Cl)cc3C2=O)N1", "note": "[Compound 9, 7,7′-(2,2′-dichloro-[1,1′-biphenyl]-3,3′-diyl)bis(2-(((S)-5-oxopyrrolidin-2-yl)methyl)-3,4-dihydropyrrolo[1,2-a]pyrazin-1(2H)-one)]", "IC50": "≥ 100"}, {"compound": "Cc1c(-c2cc3c(=O)n(C[C@@H]4CCC(=O)N4)cnn3c2)cccc1-c1cccc(-c2cc3c(=O)n(C[C@@H]4CCC(=O)N4)cnn3c2)c1C", "note": "[Compound 17, 6,6′-(2,2′-dimethyl-[1,1′-biphenyl]-3,3′-diyl)bis(3-(((S)-5-oxopyrrolidin-2-yl)methyl)pyrrolo[2,1-f][1,2,4]triazin-4(3H)-one)]", "IC50": "< 10"}, {"compound": "O=C(O)CCC(O)Cn1cnn2cc(-c3cccc(-c4cccc(-c5cc6c(=O)n(CC(O)CCC(=O)O)cnn6c5)c4Cl)c3Cl)cc2c1=O", "note": "(stereo not shown) [Compound 28, 5,5′-((2,2′-dichloro-[1,1′-biphenyl]-3,3′-diyl)bis(4-oxopyrrolo[2,1-f][1,2,4]triazine-6,3(4H)-diyl))bis(4-hydroxypentanoic acid)]", "IC50": "≥ 100"}]}]}
